Legend:
Test in all cases: p-nitrophenol release, absorbance at […] nm
Format in all cases: biochemical, Thermoactinospora rubra
TrBG1 = settings: optimal temperature 40 °C; optimal pH; pNPGlu assumed as the substrate of Table S5
TrBG2 = settings: optimal temperature 60 °C; optimal pH; pNPGlu assumed as the substrate of Table S5
TrBG3 = settings: optimal temperature 50 °C; optimal pH; pNPGlu assumed as the substrate of Table S5
TrBG5 = settings: optimal temperature 50-60 °C; optimal pH; pNPGlu assumed as the substrate of Table S5

Km (TrBG1): 9.8 mM | Km (TrBG2): 0.31 mM | Km (TrBG3): 5.9 mM | Km (TrBG5): 1.4 mM
SMILES: O=[N+]([O-])c1ccc(O[C@@H]2O[C@H](CO)[C@@H](O)[C@H](O)[C@H]2O)cc1 [p-nitrophenyl-β-D-glucopyranoside]

— article PMC5447088, “The Hybrid Strategy of Thermoactinospora rubra YIM 77501^T for Utilizing Cellulose as a Carbon Source at Different Temperatures” (Frontiers in Microbiology, 2017)
